In test [1] the test system is HCV subgenomic replicon in Huh-7 cells. The test is described as follows: Replicon assay, EC50 luciferase readout. It counts as cell-based, hepatitis C virus (HCV). Conditions: Hepatitis C virus, Huh-7, 72 h, single value, or second value of a pair x:y. The procedure:
The activities of compounds of the invention against HCV in a cellular environment were analysed using a replicon assay as described below.
Thus, Huh-7 cells persistently infected with an HCV-RNA construct (Bartenschlager, R. Hepatitis C replicons: potential role for drug development. Nature Rev. Drug Discov. 1, 911-916 (2002)) comprising: 5′ and 3′ non-translated regions (NTR); the non-structural genes NS3 to NS5b; as well as the G418 drug resistance gene, neomycin, (for selection of cells carrying HCV replicon RNA) fused to the firefly Luciferase reporter gene (pFK13889luc-ubi-neoNS3-3′ET), were used to determine the cell based antiviral activity of compounds using luciferase activity as an indirect readout of HCV RNA load. In this assay […] huh-7 cells persistently infected with the HCV subgenomic replicon construct above were platedwell in a 96 well tissue culture plate. The cells were allowed to attach overnight in DMEM medium supplemented with 10% FBS 1% NEAA, and 250 μgml gentamicin. The following day the medium was replaced with 200 μlwell of fresh medium as described above lacking gentamicin. […] Plates were then incubated at 37° C. in an atmosphere of 5% CO2 and air for 72 h. […] The plate was then read at 535 nm (excitation) and 590 nm (emission) on a SpectraMax Gemini reader (Molecular Devices) to determine the number of viable cells by measuring the conversion of rezasurin (Alamar blue) to resorufin in response to mitochondrial activity. In order to determine the antiviral effect of these compounds EC50 values were determined by measuring the luciferase activity of the cells. Alamar blue solution was removed from the wells and replaced with 100 μlwell of medium along with 100 μlwell of Bright-Glo reagent and incubated at room temperature for 5 minutes before transferring 100 μlwell to a white bottom 96 well plate to read in a luminometer as described in the Bright-Glo Luciferase Assay System protocol (promega).

Test [2] deals with T1, HCV NS3 protease (full length NS34a) (Hepatitis C virus genotype 1b, UniProt P26663).
T1 construct: The protease activity of the full length NS34a was measured using a FRET-based assay; made in house
T1 sequence (P26663 1658-1711): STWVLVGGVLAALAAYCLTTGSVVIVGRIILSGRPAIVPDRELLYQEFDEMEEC
T1 sequence (P26663 1027-1657): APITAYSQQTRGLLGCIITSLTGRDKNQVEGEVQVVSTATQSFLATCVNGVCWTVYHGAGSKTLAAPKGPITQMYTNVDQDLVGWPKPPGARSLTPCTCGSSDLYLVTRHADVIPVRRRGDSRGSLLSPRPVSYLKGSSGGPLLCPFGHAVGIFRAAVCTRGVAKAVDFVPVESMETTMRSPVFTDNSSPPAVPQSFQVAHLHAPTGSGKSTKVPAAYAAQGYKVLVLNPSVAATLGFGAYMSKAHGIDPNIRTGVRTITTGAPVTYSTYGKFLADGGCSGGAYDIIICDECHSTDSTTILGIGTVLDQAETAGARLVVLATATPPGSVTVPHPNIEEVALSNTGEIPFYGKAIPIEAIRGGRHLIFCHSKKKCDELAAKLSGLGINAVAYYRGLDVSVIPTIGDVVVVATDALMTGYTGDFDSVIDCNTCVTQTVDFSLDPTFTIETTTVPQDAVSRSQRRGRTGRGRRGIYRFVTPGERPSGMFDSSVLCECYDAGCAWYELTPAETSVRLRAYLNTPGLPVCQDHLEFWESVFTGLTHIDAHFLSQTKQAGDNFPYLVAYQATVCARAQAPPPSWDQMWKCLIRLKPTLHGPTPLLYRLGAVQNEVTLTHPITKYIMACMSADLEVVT
The test is described as follows: HCV NS3 protease assay (FRET, full length NS34a). It counts as biochemical. The method in brief: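 Full-length NS34a incubated with compound and an NS4AB cleavage-site FRET peptide (QXL520 quencher, 5-FAMsp fluorophore) in 50 mM Tris pH8, 20 mM DTT, 1% CHAPS, 10% glycerol, 5% DMSO. Fluorescence followed for 30 minutes at room temperature; IC50 from initial rates of replicate progress curves.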

Setting [3] is: Huh-7 replicon cells, 72 h, read-out: Activity EC50 (μM) (EC50 luciferase readout).
Setting [4] is: protease activity of full length NS34a, FRET peptide substrate, read-out: Activity IC50.
Setting [5] is: IC50 values of 10-150 μM against the protease activity of the full length NS34a, or at least 40% inhibition of protease activity at a concentration of 100 μM.

The results in this text go back to US20140288040A1, “SUBSTITUTED BENZYLAMINE COMPOUNDS, THEIR USE IN MEDICINE, AND IN PARTICULAR THE TREATMENT OF HEPATITIS C VIRUS (HCV) INFECTION” (ASTEX THERAPEUTICS LIMITED, priority 2011, published 2014).

Counter-ions that a name gives are not always drawn. Like-named read-outs stand apart in the source and are kept apart here. A value given as a limit tells only on which side of the number the result lay.

For `CC[C@H](N)c1ccc(Cl)c(Oc2ccccc2)c1F` [Example 77], in test [1] (setting [3]), the EC50 came out at 12 µM. Besides, the IC50 in test [2] (setting [4]) turned out to be 590 nM.
Consider `CC[C@@H](N[C@@H](C)CC(N)=O)c1ccc(Cl)c(Oc2ccc(C#N)c(C)c2)c1F` [Example 237], for which, in test [1] (setting [3]), the half-maximal effective concentration (EC50) turned out to be 0.031 µM. Also, the IC50 in test [2] (setting [4]) is 87 nM.
For `C[C@@H](CC(=O)NCCN)N[C@H](CC1CCOCC1)c1ccc(Cl)c(Oc2ccccc2)c1F` [Example 277, (S)—N-(2-Amino-ethyl)-3-[(R)-1-(4-chloro-2-fluoro-3-phenoxy-phenyl)-2-(tetrahydro-pyran-4-yl)-ethylamino]-butyramide.dihydrochloride] the same measures were 1 µM and 110 nM.
For the compound `CC[C@@H](N[C@H](C)CC(N)=O)c1ccc(Cl)c(Oc2ccc(CC#N)cc2)c1F` [Example 212], the EC50 in test [1] (read-out: Activity EC50 (μM) (EC50 luciferase readout), Huh-7 replicon cells, 72 h) is above 10 µM. For the same compound, the IC50 in test [2] (setting [4]) is 820 nM.
Regarding `CNC(CC(C)C)c1ccc(F)c(Oc2ccccc2)c1F` (centres unmarked) [Example 16, [1-(2,4-Difluoro-3-phenoxy-phenyl)-3-methyl-butyl]-methyl-amine. hydrochloride], in test [1] (setting [3]), the EC50 was 0.58 µM. In test [2] (setting [4]), the IC50 was 4000 nM.
Take `CCC(NCc1cc[nH]n1)c1ccc(F)c(Oc2ccccc2)c1F` (centres unmarked) [Example 21]: the EC50 in test [1] (setting [3]) is above 30 µM. The compound also showed an IC50 in test [2] (setting [5]) of 10000 to 150000 nM.
Take `CC[C@@H](N[C@@H](C)CC(=O)N[C@H]1CCNC1)c1ccc(Cl)c(Oc2ccccc2)c1F` [Example 250]: the EC50 in test [1] (setting [3]) came out at 1 µM. Moreover, the IC50 in test [2] (setting [4]) was 950 nM.
On to `N[C@H]1CC[C@H](NCc2ccc(F)c(Oc3ccccc3)c2Cl)CC1` [Example 290], for which the EC50 in test [1] (setting [3]) is 10 µM. The IC50 in test [2] (setting [4]) stood at 3400 nM.
In the same order, the values of `NC(C1=CCNCC1)c1ccc(F)c(Oc2ccccc2)c1F` (centres unmarked) [Example 13, C-(2,4-Difluoro-3-phenoxy-phenyl)-C-(1,2,3,6-tetrahydro-pyridin-4-yl)-methylamine. dihydrochloride] are 2 µM and 3100 nM.
For `CCC(NCCC(N)=O)c1ccc(F)c(Oc2ccccc2)c1F` (centres unmarked) [Example 71] the same measures were above 30 µM and 950 nM.
In the same order, the values of `CC[C@@H](N[C@@H](C)CC(N)=O)c1ccc(Cl)c(Oc2cccc(C#N)c2)c1F` [Example 226] are 2.9 µM and 200 nM.
Turning to `CC[C@@H](N[C@@H](C)CC(N)=O)c1ccc(Cl)c(Oc2ccc3c(c2)C(C)(C)CN3)c1F` [Example 322], the EC50 in test [1] (setting [3]) is 1.2 µM. Also, the IC50 in test [2] (setting [4]) was 270 nM.
In the same order, the values of `CCC(NCC(C)O)c1ccc(F)c(Oc2ccccc2)c1F` (mixture of isomers) [Example 53, 1-[1-(2,4-Difluoro-3-phenoxy-phenyl)-propylamino]-propan-2-ol.hydrochloride] are 26 µM and 5000 nM.
Take `CC[C@@H](N[C@H](CC(N)=O)C1CC1)c1ccc(Cl)c(Oc2ccccc2)c1F` [Example 165]: the EC50 in test [1] (setting [3]) was above 10 µM. This compound also yielded an IC50 in test [2] (setting [5]) of 10000 to 150000 nM.
`CC[C@@H](N[C@@H](C)CC(=O)NCCCN)c1ccc(Cl)c(Oc2ccccc2)c1F` [Example 240]: in test [1] (setting [3]), the EC50 came out at 8.9 µM. The inhibition at 0.01 µM in test [2] (read-out: Activity % inhibition @ 0.01 μM, 0.01 μM compound) is 42%.
Take `CC[C@@H](N[C@@H](C)CC(=O)N1CCCNCC1)c1ccc(Cl)c(Oc2ccccc2)c1F` [Example 236]: the EC50 in test [1] (setting [3]) is 1.7 µM. Also, in test [2] (setting [5]), the half-maximal inhibitory concentration (IC50) is 10000 to 150000 nM. In addition, in test [2] (read-out: Activity % inhibition @ 3 μM, 3 μM compound), the inhibition at 3 µM worked out at 50%.
Take `CC[C@@H](N[C@@H](C)c1cn[nH]c1)c1ccc(Cl)c(Oc2ccccc2)c1F` [Example 145A, [(R)-1-(4-Chloro-2-fluoro-3-phenoxy-phenyl)-propyl]-[(S)-1-(1H-pyrazol-4-yl)-ethyl]-amine. dihydrochloride]: in test [1] (setting [3]), the EC50 stood at 9.5 µM. Besides, the IC50 in test [2] (setting [4]) is 7400 nM.
As to `OCCN[C@H](CC1CCNCC1)c1ccc(F)c(Oc2ccccc2)c1F` [Example 87B, 2-[(R)-1-(2,4-Difluoro-3-phenoxy-phenyl)-2-piperidin-4-yl-ethylamino]-ethanol], the EC50 in test [1] (setting [3]) was 3.9 µM. For the same compound, the IC50 in test [2] (setting [5]) fell in the range of 10000 to 150000 nM.
As for `CC[C@H](NCCO)c1ccc(F)c(Oc2ccccc2)c1F` [Example 100, 2-[(S)-1-(2,4-Difluoro-3-phenoxy-phenyl)-propylamino]-ethanol.trifluoroacetate], in test [1] (setting [3]), the EC50 is above 18 µM. For the same compound, in test [2] (setting [4]), the IC50 came to 1100 nM.
Turning to `NC(c1ccc(=O)[nH]c1)c1ccc(F)c(Oc2ccccc2)c1F` (centres unmarked) [Example 73, 5-[Amino-(2,4-difluoro-3-phenoxy-phenyl)-methyl]-1H-pyridin-2-one], in test [1] (setting [3]), the EC50 was above 30 µM. The compound also yielded an IC50 in test [2] (setting [5]) of 10000 to 150000 nM.
For `CC[C@H](N[C@@H](C)CC(N)=O)c1ccc(F)c(Oc2ccccc2)c1F` [Example 70], the EC50 in test [1] (setting [3]) is 27 µM. Moreover, the IC50 in test [2] (setting [4]) is 730 nM.
For `CCC[C@@H](N[C@@H](C)CC(N)=O)c1ccc(Cl)c(Oc2ccccc2)c1F` [Example 125] the same measures were 0.38 µM and 230 nM.
In the same order, the values of `CC[C@@H](N)c1ccc(Cl)c(Oc2cccc(CO)c2)c1F` [Example 115] are above 10 µM and 1800 nM.
Take `Cc1cc(Oc2c(F)ccc(CN[C@H]3CC[C@@H](N)CC3)c2F)ccc1N` [Example 288]: the concentration giving a half-maximal response (EC50) in test [1] (setting [3]) was 1.4 µM. Moreover, in test [2] (setting [4]), the IC50 is 1400 nM.
As to `CC[C@@H](N[C@@H](C)CC(=O)NN)c1ccc(Cl)c(Oc2ccccc2)c1F` [Example 154], in test [1] (setting [3]), the EC50 turned out to be 17 µM. Also, the IC50 in test [2] (setting [4]) is 180 nM.
In the same order, the values of `CC[C@@H](N[C@@H](C)CC(N)=O)c1ccc(Cl)c(Oc2ccc(C)nc2)c1F` [Example 313] are above 10 µM and 150 nM.
For `CC[C@@H](N[C@@H](C)CC(=O)NC(C)(C)CN)c1ccc(Cl)c(Oc2ccccc2)c1F` [Example 252] the same measures were 0.88 µM and 1900 nM.
In the case of `C[C@@H](CC(N)=O)N[C@@H](CC1CCNCC1)c1ccc(F)c(Oc2ccccc2)c1F` [Example 98], the EC50 in test [1] (setting [3]) is above 10 µM. Also, in test [2] (setting [4]), the IC50 came to 1600 nM.
Regarding `CC[C@@H](N[C@H](C)CC(=O)NCCN)c1ccc(Cl)c(Oc2ccc(N)c(C)c2)c1F` [Example 239], the EC50 in test [1] (setting [3]) was determined as 0.97 µM. The inhibition at 0.03 µM in test [2] (read-out: Activity % inhibition @ 0.03 μM, 0.03 μM compound) is 41%.
In the case of `CC(C)C(N)c1ccc(F)c(Oc2ccccc2)c1F` (centres unmarked) [Example 1, 1-(2,4-Difluoro-3-phenoxy-phenyl)-2-methyl-propylamine. hydrochloride], the EC50 in test [1] (setting [3]) amounted to 15 µM. For the same compound, the IC50 in test [2] (setting [4]) came out at 2500 nM.
Regarding `CCC(N[C@H]1CC[C@@H](N)CC1)c1ccc(F)c(Oc2ccccc2)c1F` (stereo partly drawn) [Example 6, cis-N-[1-(2,4-Difluoro-3-phenoxy-phenyl)-propyl]-cyclohexane-1,4-diamine dihydrochloride], in test [1] (setting [3]), the EC50 is 0.14 µM. For the same compound, the IC50 in test [2] (setting [5]) fell in the range of 10000 to 150000 nM.
As to `CC[C@H](NC(C)CO)c1ccc(Cl)c(Oc2ccccc2)c1F` (some centres unmarked) [Example 81], the EC50 in test [1] (setting [3]) stood at 11 µM. The IC50 in test [2] (setting [4]) turned out to be 390 nM.
In the same order, the values of `CC[C@@H](N[C@@H](C)CC(N)=O)c1ccc(Cl)c(Oc2cccc(NS(C)(=O)=O)c2)c1F` [Example 196] are 0.27 µM and 420 nM.
In the same order, the values of `CCC(NCCCO)c1ccc(F)c(Oc2ccccc2)c1F` (centres unmarked) [Example 56, 3-[1-(2,4-Difluoro-3-phenoxy-phenyl)-propylamino]-propan-1-ol.hydrochloride] are 11 µM and 1100 nM.
In the same order, the values of `CCC(NC(C)CC(=O)NC)c1ccc(F)c(Oc2ccccc2)c1F` (centres unmarked) [Example 49] are above 30 µM and 3200 nM.
Turning to `CC[C@H](N)c1ccc(Cl)c(Oc2ccc(N)nc2)c1F` [Example 114], the EC50 in test [1] (setting [3]) was above 10 µM. Further, in test [2] (setting [4]), the IC50 was 1000 nM.
In the case of `CS(=O)(=O)Nc1cccc(Oc2c(F)ccc(CN[C@H]3CC[C@H](N)CC3)c2F)c1` [Example 284], the EC50 in test [1] (setting [3]) is above 10 µM. For the same compound, in test [2] (setting [4]), the IC50 came out at 1400 nM.
For `C[C@@H](CC(N)=O)N[C@H](CC1CCNCC1)c1ccc(F)c(Oc2ccccc2)c1F` [Example 84] the same measures were 18 µM and 450 nM.
